Experimental data taken from publication PMC4230943, “Mimicking Hypoxia to Treat Anemia: HIF-Stabilizer BAY 85-3934 (Molidustat) Stimulates Erythropoietin Production without Hypertensive Effects” (PLoS ONE, 2014).

What was measured:
male Wistar rats = assay: Comparison of oral BAY 85-3934 with rhEPO on erythropoiesis; assay type: in vivo, rat
Procedure: Male Wistar rats (240–340 g in body weight) were housed with five animals per cage for at least 1 week before experimentation. Blood samples from rats were collected under anesthesia (2% isoflurane in air) by puncturing the retro-orbital vein plexus with a glass capillary. In a repeat-dose, 26-day experiment, animals were administered vehicle or BAY 85-3934 at doses of 0.5 mg/kg, 1.25 mg/kg, 2.5 mg/kg, and 5 mg/kg. PCV was determined at baseline and at weekly intervals after centrifugation in a hematocrit capillary tube (Brand) for 10 min at full speed in a Haemofuge centrifuge (Heraeus). The number of reticulocytes in 5 µl blood was counted after staining with thiazol orange (Becton Dickinson) according to the manufacturer’s instructions by FACS analysis on a BD FACSCalibur system (Becton Dickinson). The efficacy of BAY 85-3934 (2.5 mg/kg, once-daily, oral) was also compared with that of rhEPO (25 IU/kg, 50 IU/kg, and 100 IU/kg, twice-weekly, s.c. injection). […] The efficacy of oral treatment with BAY 85-3934 was compared with that of standard rhEPO treatment in male Wistar rats.

[1] = system: A549 cells stably transfected with the HIF-RE2-luc HIF reporter construct; assay: Luciferase reporter assay in A549 HIF-RE2 reporter cells; assay type: cell-based, human
Procedure: (§1) A549 and HeLa carcinoma cell lines (American Type Culture Collection) were cultured in DMEM/F-12 (Gibco), and Hep3B cells in RPMI medium, both supplemented with antibiotics, L-glutamine and 10% fetal calf serum. A549 cells stably transfected with the HIF-RE2-luc HIF reporter construct (constructed in pGL3, Promega GmbH) were seeded on 384-well plates (Greiner) at a density of 2500 cells/well in a volume of 25 µl complete cell culture medium, and re-incubated for 16–24 h before the test. Test compounds were added at appropriate dilutions in a volume of 10 µl, and cells were re-incubated for 6 h before measurement. Luciferase activity was determined in a luminometer after addition of cell lysis/luciferase buffer. Cell line identities were verified by STR DNA typing (DSMZ GmbH).
As in the enzymatic assay, and in contrast to experiments with iron-chelating agents (data not shown), luciferase activity was not altered by a high concentration of Fe^2+ (50 µM) in the culture medium (Fig. 1G). The high IC50 value observed corresponds well to the low sensitivity of A549 cells shown by western blot analysis.

[2] = system: rats and cynomolgus monkeys; assay: Adverse events in all animal experiments reported; assay type: in vivo; settings: all of the experiments reported
Procedure: All procedures conformed to national legislation (dt. Tierschutzgesetz v. 18.05.2006) and EU directives (86/609) for the use of animals for scientific purposes and were approved by the institutional animal care office of Bayer AG and by the competent regional authority (LANUV Recklinghausen). All surgical procedures were performed under deep anesthesia (2% isoflurane) with immediate post-operative analgesia (ketamine/carprofen), and all efforts were made to minimize suffering. Rats were sacrificed by exposure to 10% isoflurane and consecutive cervical dislocation. Standard laboratory diet and tap water were available ad libitum. Rats were provided with wood sticks for chewing and gnawing, and monkeys were provided with appropriate toys such as balls and climbing bars. Animals were housed in temperature- and humidity-controlled cages with a 12 h light/dark cycle. In each experiment, the number of animals used was minimized. Animals were either randomly assigned to experimental groups or, if appropriate, were assigned based on hematocrit levels.

[3] = system: broad panel of radio-ligand binding assays; assay: Broad panel of radio-ligand binding assays (n = 67); settings: 10 µM, n = 67 assays, data not shown
Procedure: The selectivity of BAY 85-3934 was examined via a broad panel of radio-ligand binding assays (n = 67), and by examining the activity of BAY 85-3934 against related enzymes (matrix metalloproteinases and other peptidases, n = 8). At a concentration of 10 µM, no significant (> 50%) activity in any of these assays was detected (data not shown).

HIF-1α and HIF-2α = assay: Western blot detection of HIF stabilization in HeLa, A549 and Hep3B cells; assay type: cell-based, human; settings: for induction threshold of detectable HIF: 2 h exposure
Procedure: as §1
For western blot analysis, cell lysates were separated on 4–12% SDS polyacrylamide gradient gels (Invitrogen). Proteins were blotted onto polyvinylidene difluoride (PVDF) membranes (Amersham Biosciences). HIF-1α protein was detected using a HIF-1α specific monoclonal antibody (BD Transduction Laboratories) at a dilution of 1∶250. HIF-2α protein was detected using a HIF-2α specific polyclonal antibody (Novus Biologicals) at a dilution of 1∶1000. Anti-β-actin antibody served as a loading control. […] Novex Sharp Pre-stained Protein Standard (Invitrogen) was used as molecular weight marker.
It was further explored whether inhibition of HIF-PHs would result in the stabilization of HIFs. Exposure of three different human cell lines (HeLa, A549, and Hep3B) to concentrations of BAY 85-3934 up to 10 µM for 2 h led to dose-dependent increases in both HIF-1α and HIF-2α. Within the individual cell lines, there was no difference between the HIF isoforms with regard to the threshold concentration of BAY 85-3934 that was necessary for the induction of detectable amounts of HIF. […] Exposure of HeLa cells to 5 µM BAY 85-3934 for 20 min was sufficient to induce detectable concentrations of HIF-1α (Fig. 1E). After exposure of A549 cells to 20 µM BAY 85-3934 for 120 min, with subsequent withdrawal of the culture medium and replacement with medium containing 100 µM cycloheximide (an inhibitor of protein synthesis), induction of HIF-1α was no longer detectable after 30 min (Fig. 1F). Therefore, it can be ruled out that disappearance of HIF-1α was the result of de novo synthesis of […].

Compound: O=c1c(-n2ccnn2)c[nH]n1-c1cc(N2CCOCC2)ncn1 [BAY 85-3934, 2-[6-(morpholin-4-yl)pyrimidin-4-yl]-4-(1H-1,2,3-triazol-1-yl)-1,2-dihydro-3H-pyrazol-3-one]
- equivalence of dose for gains in hematocrit and hemoglobin (male Wistar rats; BAY 85-3934 2.5 mg/kg once daily): equivalent to a twice-weekly dose of rhEPO (100 IU/kg)
- hematocrit compared with the control group (male Wistar rats; BAY 85-3934 2.5 mg/kg once daily oral, rhEPO 25, 50, 100 IU/kg twice weekly s.c., p<0.001 at day 30): significant increase
- luciferase activity at high Fe2+ in the culture medium ([1]; Fe2+ 50 µM): not altered
- EC50 ([1]; Homo sapiens, A549, 6 h incubation, n = 4, read-out: mean (± SD) EC50 of luciferase reporter induction): 8.4 ± 0.7 µM
- adverse events related to treatment [2]: no significant adverse events
- activity in radio-ligand binding assays [3]: ≤ 50%
- induction threshold of detectable HIF (HIF-1α and HIF-2α; A549 cells): 2.5 µM
- induction threshold of detectable HIF (HIF-1α and HIF-2α; HeLa cells): 0.25 µM
- induction threshold of detectable HIF (HIF-1α and HIF-2α; Hep3B cells): 0.5 µM
- induction threshold of HIF (summary in discussion) (HIF-1α and HIF-2α; human cell lines): below 1 µM
